The results in this text go back to ChEMBL document CHEMBL1156738, “Design, synthesis and evaluation of novel oxazaphosphorine prodrugs of 9-(2-phosphonomethoxyethyl)adenine (PMEA, adefovir) as potent HBV inhibitors” (Bioorg Med Chem Lett, 2009).

Data set [1] relates to Hepatitis B virus. Briefly: Antiviral activity against Hepatitis B virus infected HepG2(2.2.15) cells assessed as inhibition of viral cytoplasmic DNA synthesis by real-time PCR. The format is functional, organism-based. A general note: In qPCR the cycle at which signal appears reflects the starting amount.
A short description of data set [2]: Selectivity index, ratio of CC50 for human HepG2(2.2.15) cells to IC50 for Hepatitis B virus. In kind it is functional.
The nature of data set [3]: Cytotoxicity against human HepG2(2.2.15) cells. The format is cell-based.
Data set [4] deals with Hepatitis B virus. Briefly: Ratio of compound IC50 to adefovir dipivoxil IC50 for Hepatitis B virus. The format is functional.
The nature of data set [5]: Metabolic stability in human liver microsomes assessed as half life. In kind it is ADME, Microsome. (Liver microsomes are a subcellular fraction often used to study metabolism.)
The species named for the next data set is Homo sapiens. Briefly: Metabolic stability in human plasma assessed as half life.

`COC(=O)[C@H](CC(C)C)N1CCCOP1(=O)COCCn1cnc2c(N)ncnc21.O=C(O)/C=C/C(=O)O` (some centres not stated): in the data set on Hepatitis B virus [1], the IC50 turned out to be 0.32 µM. Further, the “Ratio CC50/IC50” value in data set [2] came out at 694. The compound also registered a CC50 in data set [3] of 222 µM.

Turning to `COC(=O)[C@H](Cc1ccccc1)N1CCCOP1(=O)COCCn1cnc2c(N)ncnc21.O=C(O)/C=C/C(=O)O` (some centres not stated), the IC50 with Hepatitis B virus [1] came out at 2.62 µM. Besides, in data set [2], the “Ratio CC50/IC50” value was 277. Further, the CC50 in data set [3] worked out at 726 µM.

Take `COC(=O)CN1CCCOP1(=O)COCCn1cnc2c(N)ncnc21.O=C(O)/C=C/C(=O)O` (racemic): in the data set on Hepatitis B virus [1], the IC50 was determined as 0.88 µM. In addition, the “Ratio CC50/IC50” value in data set [2] is 683. The compound also showed a CC50 in data set [3] of 602 µM.

For `CCOC(=O)[C@@H](C(C)C)N1CCCO[P@]1(=O)COCCn1cnc2c(N)ncnc21.O=C(O)/C=C/C(=O)O`, the IC50 with Hepatitis B virus [1] was 50 µM. The “Ratio CC50/IC50” value in data set [2] is 8. This compound also registered a CC50 in data set [3] of 400 µM.

Regarding `COC(=O)[C@H](C(C)C)N1CCCO[P@]1(=O)COCCn1cnc2c(N)ncnc21.O=C(O)/C=C/C(=O)O`, the IC50 with Hepatitis B virus [1] was 0.12 µM. In addition, in data set [2], the “Ratio CC50/IC50” value is on record as 4800. In addition, in data set [3], half-maximal cytotoxicity (CC50) was put at 577 µM. Besides, the Ratio in the data set on Hepatitis B virus [4] is 3. The values for the half-life (in data set [5]; in the data set listed under Homo sapiens) were 3.6 h and above 6 h, respectively.

`COC(=O)[C@H](C)N1CCCO[P@]1(=O)COCCn1cnc2c(N)ncnc21.O=C(O)/C=C/C(=O)O`: the IC50 in the data set on Hepatitis B virus [1] came to 0.51 µM. Moreover, the “Ratio CC50/IC50” value in data set [2] was 1270. In data set [3], the CC50 turned out to be 650 µM.

As for `CCOC(=O)[C@@H](C(C)C)N1CCCO[P@@]1(=O)COCCn1cnc2c(N)ncnc21.O=C(O)/C=C/C(=O)O`, the IC50 in the data set with Hepatitis B virus [1] was determined as 50 µM. The “Ratio CC50/IC50” value in data set [2] came out at 9. Further, in data set [3], the CC50 came out at 439 µM.

For the compound `COC(=O)[C@H](C)N1CCCO[P@@]1(=O)COCCn1cnc2c(N)ncnc21.O=C(O)/C=C/C(=O)O`, the IC50 with Hepatitis B virus [1] turned out to be 0.91 µM. Further, the “Ratio CC50/IC50” value in data set [2] was 649. In data set [3], this compound displayed a CC50 of 590 µM.

Turning to `CCOC(=O)[C@H](C(C)C)N1CCCO[P@]1(=O)COCCn1cnc2c(N)ncnc21.O=C(O)/C=C/C(=O)O`, the IC50 in the data set with Hepatitis B virus [1] was 3 µM. Also, in data set [2], the “Ratio CC50/IC50” value stood at 187. In data set [3], this compound had a CC50 of 560 µM.

For `CC(C)(C)C(=O)OCOP(=O)(COCCn1cnc2c(N)ncnc21)OCOC(=O)C(C)(C)C` [ADEFOVIR DIPIVOXIL], in the data set with Hepatitis B virus [1], the IC50 was found to be 0.33 µM. In data set [3], the CC50 came to 555 µM.

Regarding `CC(C)OC(=O)[C@H](C(C)C)N1CCCO[P@]1(=O)COCCn1cnc2c(N)ncnc21.O=C(O)/C=C/C(=O)O`, the half-inhibitory concentration (IC50) with Hepatitis B virus [1] stood at 5.76 µM. Further, the “Ratio CC50/IC50” value in data set [2] came to 103. In data set [3], this compound showed a CC50 of 592 µM.

As to `CCOC(=O)[C@H](C(C)C)N1CCCO[P@@]1(=O)COCCn1cnc2c(N)ncnc21.O=C(O)/C=C/C(=O)O`, the IC50 with Hepatitis B virus [1] worked out at 50 µM. In addition, in data set [2], the “Ratio CC50/IC50” value stood at 9. The compound also displayed a CC50 in data set [3] of 468 µM.

As to `CCC(C)[C@@H](C(=O)OC)N1CCCOP1(=O)COCCn1cnc2c(N)ncnc21.O=C(O)/C=C/C(=O)O` (some centres not stated), the IC50 in the data set on Hepatitis B virus [1] came to 2.21 µM. The “Ratio CC50/IC50” value in data set [2] stood at 293. For the same compound, the CC50 in data set [3] was 648 µM.

Consider `COC(=O)[C@H](C(C)C)N1CCCO[P@@]1(=O)COCCn1cnc2c(N)ncnc21.O=C(O)/C=C/C(=O)O`, for which the half-life in data set [5] was above 6 h.

The IC50 is the midpoint of a concentration-inhibition curve. As usually defined, the CC50 is the concentration that lowers cell viability or growth by half. Read a low CC50 as harm at low concentration. As a reminder, the half-life is the time in which the quantity being followed falls by half.
